The assay has as its target T1, human LPAR1 (Homo sapiens, UniProt Q92633).
T1 construct: expressed in transfected cells
As to the kind of experiment: Test Example 1: antagonism against response of LPA-induced increase in intracellular Ca2+ concentration in RH7777 cells stably expressing human LPAR1. The class given is cell-based. In short, it runs like this:
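RH7777 cells stably transfected with human LPAR1 were preincubated with test compound 30 min at 37 °C in HBSS/20 mM HEPES/probenecid/0.05% BSA buffer, pH 7.4, then LPA-stimulated.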

Where [1] appears, read: RH7777 cells stably expressing human LPAR1, Fluo-4 fluorescence, FDSS6000, read-out: IC50 value (concentration producing 50% antagonism against response of LPA-induced increase in intracellular Ca2+ concentration) (converted).

Read-outs that look alike come from different tables or passages of the source.

T1 sequence (Q92633 whole entry): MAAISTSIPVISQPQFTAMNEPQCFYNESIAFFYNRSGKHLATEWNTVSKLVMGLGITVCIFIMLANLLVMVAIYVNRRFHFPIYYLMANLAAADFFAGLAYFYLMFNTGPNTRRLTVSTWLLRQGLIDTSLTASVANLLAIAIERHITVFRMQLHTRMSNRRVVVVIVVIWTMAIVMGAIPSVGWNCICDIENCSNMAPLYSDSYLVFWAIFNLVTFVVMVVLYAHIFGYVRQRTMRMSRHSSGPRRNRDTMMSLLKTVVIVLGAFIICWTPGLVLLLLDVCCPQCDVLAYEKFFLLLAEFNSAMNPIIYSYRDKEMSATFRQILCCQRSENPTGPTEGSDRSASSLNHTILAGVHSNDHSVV

Take `CCOc1c(C(C)=O)ccc([C@@H](C)N(CCCCc2ccccc2)C(=O)NC2(C(=O)O)CC2)c1C` [Example 1-19]: the IC50 under setting [1] was 4.1 nM.

As to `CCOc1cc([C@@H](C)N(CCCCc2ccccc2)C(=O)N[C@]2(C(=O)O)C[C@H](OC)C2)cc(OCC)c1C(C)=O` [Example 1-87, Cis-1-({[(1R)-1-(4-Acetyl-3,5-Diethoxyphenyl)Ethyl](4-Phenylbutyl) Carbamoyl}Amino)-3-Methoxycyclobutane-1-Carboxylic Acid], the IC50 under setting [1] is 1.37 nM.

`CCOc1cc(C(C)N(CCO[C@@H](C)c2ccccc2)C(=O)NC2(C(=O)O)CC(OCC)C2)c(C)c(OCC)c1C1CC1` (some centres unmarked) [Example 5-217]: the IC50 under setting [1] is 1.65 nM.

As to `CCOc1cc(C(C)N(CCCCc2ccccc2)C(=O)NC2(C(=O)O)CC(F)(F)C2)c(F)c(OCC)c1C` (centres unmarked) [Example 5-83], under setting [1], the IC50 was 3.36 nM.

Consider `CCOc1cc([C@@H](C)N(CCO[C@@H](C)c2ccccc2)C(=O)NC2(C(=O)O)CC(OC)C2)cc(OCC)c1C(C)O` (some centres unmarked) [Example 4-126], for which, under setting [1], the IC50 is 3.91 nM.

For the compound `CCOc1cc([C@@H](C)N(Cc2cc3ccccc3[nH]2)C(=O)NC2(C(=O)O)CC(F)(F)C2)cc(OCC)c1C` [Example 4-32], the IC50 under setting [1] is 733 nM.

Regarding `CCOc1c(C(C)=O)ccc([C@@H](C)N(CCCC(F)(F)c2ccccc2)C(=O)NC2(C(=O)O)CC(OCC)C2)c1C` (some centres unmarked) [Example 4-72], under setting [1], the IC50 was 3.34 nM.

Regarding `CCCOc1cc(OCCC)cc(C(C)N(CCCCc2ccccc2)C(=O)NC2(C(=O)O)CC(F)(F)C2)c1` (centres unmarked) [Example 5-18], the IC50 under setting [1] is 11 nM.

On to `CCOc1cc([C@@H](C)N(CCOCc2ccccc2)C(=O)NC2CCOCC2C(=O)O)c(Cl)c(OCC)c1C(C)O` (single isomer, unassigned) [Example 5-69], for which the IC50 under setting [1] is 3.3 nM.

As to `CCOc1cc(C(C)N(CCCCc2ccccc2)C(=O)NC2CC(C(=O)O)C2)c(Cl)c(OCC)c1C(C)=O` (centres unmarked) [Example 5-45], under setting [1], the IC50 is 32.9 nM.

As for `CCOc1cc(C(C)N(CCOCc2ccccc2)C(=O)NC2(C(=O)O)CCOCC2)c(Cl)c(OCC)c1C1CC1` (centres unmarked) [Example 5-225], the IC50 under setting [1] is 0.809 nM.

Take `CCOc1cc(C(C)N(CCCCc2ccccc2)C(=O)NC2(C(=O)O)CC(F)(F)C2)ccc1C(C)=O` (centres unmarked) [Example 5-8]: the IC50 under setting [1] was 3.62 nM.

`CCOc1cc([C@@H](C)N(CCO[C@H](C)c2ccccc2)C(=O)NC2(C(=O)O)CCOCC2)c(Cl)c(OCC)c1C(C)=O` [Example 5-34]: the IC50 under setting [1] is 4.18 nM.

Turning to `CCOC(=O)C1(NC(=O)N(CCO[C@@H](C)c2ccccc2)C(C)c2cc(OCC)c(C(C)=O)c(OCC)c2)CC(OCC)C1` (some centres unmarked) [Example 6-9], under setting [1], the IC50 is 1010 nM.

As to `CCOc1cc(C(C)N(CCCCc2ccccc2)C(=O)NC2(C(=O)O)CC(F)(F)C2)cc(OCC(F)(F)F)c1C` (centres unmarked) [Example 1-63], the IC50 under setting [1] was 10.9 nM.

`CCOc1cc([C@@H](C)N(CCCCc2ccccc2)C(=O)NC2(c3nnn[nH]3)CC(F)(F)C2)cc(OCC)c1C(C)=O` [Example 10-7, N-[(1R)-1-(4-Acetyl-3,5-Diethoxyphenyl)Ethyl]-N′-[3,3-Difluoro-1-(1H-Tetrazol-5-Yl)Cyclobutyl]-N-(4-Phenylbutyl) Urea]: under setting [1], the IC50 was 2.97 nM.

For the compound `CCOc1cc([C@@H](C)N(CCOCc2ccccc2)C(=O)N[C@]2(C(=O)O)C[C@@H](OCC)C2)c(C)c(OCC)c1C` [Example 5-81], the IC50 under setting [1] was 1.07 nM.

Turning to `CCOC1CC(NC(=O)N(CCOCc2ccccc2)C(C)c2cc(OC)c(C3CC3)c(OC)c2)(C(=O)O)C1` (centres unmarked) [Example 5-162], the IC50 under setting [1] was 3.66 nM.

On to `CCOc1cc([C@@H](C)N(CCOC(C)(C)c2ccccc2)C(=O)NC2(C(=O)O)CC(F)(F)C2)cc(OCC)c1C1CC1` [Example 4-160], for which, under setting [1], the IC50 was 10.4 nM.

Regarding `CCOc1cc(C(C)N(CCCCc2ccccc2)C(=O)NC2(C(=O)O)CC(F)(F)C2)c(Cl)c(OCC)c1C` (centres unmarked) [Example 5-84], the IC50 under setting [1] is 3.36 nM.

As for `CCOc1cc([C@@H](C)N(CCO[C@@H](C)c2ccccc2)C(=O)NC2(C(=O)O)CCOCC2)cc(OCC)c1C(C)O` (single isomer, unassigned) [Example 4-143], the IC50 under setting [1] is 47.4 nM.

Turning to `CCOc1cc([C@@H](C)N(CCCCc2ccccc2)C(=O)NCCCC(=O)O)cc(OCC)c1C` [Example 1-15], the IC50 under setting [1] is 280 nM.

In the case of `CCOc1cc([C@@H](C)N(CCCCc2ccccc2)C(=O)NC2(C(=O)O)CC(OCC)C2)cc(OCC)c1C(C)=O` (some centres unmarked) [Example 1-97], the IC50 under setting [1] was 3.94 nM.

As to `CCOc1cc(C(C)N(CCO[C@@H](C)c2ccccc2)C(=O)NC2(C(=O)O)CC(OC)C2)c(C)c(OCC)c1C1CC1` (some centres unmarked) [Example 5-203], the IC50 under setting [1] is 1.33 nM.

Turning to `CCOc1cc([C@@H](C)N(CCC(F)(F)Cc2ccccc2)C(=O)NC2(C(=O)O)CC(F)(F)C2)cc(OCC)c1C(C)O` (single isomer, unassigned) [Example 4-86], the IC50 under setting [1] was 2.75 nM.

For `CCOc1cc([C@@H](C)N(CCOCc2ccccc2)C(=O)NC2(C(=O)O)CC(OC)C2)c(C)c(OCC)c1C(C)=O` (some centres unmarked) [Example 5-73], the IC50 under setting [1] is 1.42 nM.

Take `CCOc1cc([C@@H](C)N(CCCCc2ccccc2)C(=O)NC2(C(=O)O)CC(=O)C2)cc(OCC)c1C` [Example 1-111]: the IC50 under setting [1] was 2.31 nM.

For the compound `CCOc1cc([C@@H](C)N(CCCCc2ccc(OC)cc2)C(=O)NC2(C(=O)O)CC(F)(F)C2)cc(OCC)c1C` [Example 4-19], under setting [1], the IC50 was 60.8 nM.

For the compound `CCOc1c(C(C)=O)ccc([C@@H](C)N(CCCCc2ccccc2)C(=O)NC2(C(=O)O)CC(OC)C2)c1C` (some centres unmarked) [Example 1-94], the IC50 under setting [1] is 11.8 nM.

In turn, `COc1cc(CN(CCCCc2ccccc2)C(=O)NC(CC(C)C)C(=O)O)cc(OC)c1C` (centres unmarked) [Example 1-5] had an IC50 of 4680 nM.

For the compound `CCOc1cc([C@@H](C)N(CC(=O)NCc2ccccc2)C(=O)NC2(C(=O)O)CC(F)(F)C2)cc(OCC)c1C` [Example 4-163], the IC50 under setting [1] is 384 nM.

Regarding `CCOc1cc([C@@H](C)N(CCO[C@@H](C)c2ccccc2)C(=O)NC2(C(=O)O)CC2)cc(OCC)c1C1CC1` [Example 4-112], under setting [1], the IC50 was 1.49 nM.

Regarding `COc1cc(C(C)N(CCOCc2ccccc2)C(=O)NC2(C(=O)O)CC(OC)C2)c(C)c(OC)c1C1CC1` (centres unmarked) [Example 5-155], the IC50 under setting [1] is 1.1 nM.

With `CCOC1CC(NC(=O)N(CCOCc2ccccc2)[C@H](C)c2cc(OC)c(C(C)=O)c(OC)c2)(C(=O)O)C1` (some centres unmarked) [Example 5-125], under setting [1], the IC50 was 10.9 nM.

Turning to `CCCCC(NC(=O)N(CCCCc1ccccc1)[C@H](C)c1cc(OCC)c(C)c(OCC)c1)C(=O)O` (some centres unmarked) [Example 1-4], under setting [1], the IC50 was 25.5 nM.

Turning to `CCOc1cc([C@@H](C)N(CCCC(F)(F)c2ccccc2)C(=O)NC2(C(=O)O)CC2)cc(OCC)c1C1CC1` [Example 4-46], under setting [1], the IC50 is 1.21 nM.

In the case of `CCOc1cc([C@@H](C)N(CCC(F)(F)Cc2ccccc2)C(=O)NC2(C(=O)O)CC(OCC)C2)cc(OCC)c1C1CC1` (some centres unmarked) [Example 4-94], the IC50 under setting [1] is 3.61 nM.

On to `CCOc1cc([C@@H](C)N(CCO[C@@H](C)c2ccccc2)C(=O)NC2(C(=O)O)CC2)cc(OCC)c1C(C)=O` [Example 4-111], for which the IC50 under setting [1] was 3.07 nM.

Regarding `CCOc1cc([C@@H](C)N(CCCCc2ccccc2)C(=O)NC2(C(=O)O)CC(F)(F)C2)cc(OCC)c1C(C)O` (single isomer, unassigned) [Example 1-36], the IC50 under setting [1] is 1.04 nM.

`Cc1c(OC2CC2)cc(C(C)N(CCCCc2ccccc2)C(=O)NC2(C(=O)O)CC(F)(F)C2)cc1OC1CC1` (centres unmarked) [Example 1-73]: the IC50 under setting [1] is 7.43 nM.

For `CCOc1cc([C@@H](C)N(CCO[C@@H](C)c2ccccc2)C(=O)N[C@]2(C(=O)O)C[C@@H](OCC)C2)c(Cl)c(OCC)c1C(C)O` (single isomer, unassigned) [Example 5-61], the IC50 under setting [1] is 3.17 nM.

Consider `CC(c1cc(Cl)cc(Cl)c1F)N(CCCCc1ccccc1)C(=O)NC1(C(=O)O)CC(F)(F)C1` (centres unmarked) [Example 1-80], for which the IC50 under setting [1] is 13.1 nM.

Consider `CCOc1cc([C@@H](C)N(CCCCc2ccccc2)C(=O)NC2(CC(=O)O)CC2)cc(OCC)c1C(C)=O` [Example 1-145], for which, under setting [1], the IC50 was 1.72 nM.

Consider `CCOc1cc(C(C)N(CCCCc2ccccc2)C(=O)NC(Cc2ccccc2)C(=O)O)cc(OCC)c1C` (centres unmarked) [Example 1-8], for which the IC50 under setting [1] is 125 nM.

Turning to `CCOc1cc(OCC)cc([C@@H](C)N(CCCCc2ccccc2)C(=O)NC2(C(=O)O)Cc3ccccc3C2)c1` [Example 5-12], the IC50 under setting [1] was 45.4 nM.

Turning to `CCOc1cc([C@@H](C)N(CCCC(F)(F)c2ccccc2)C(=O)NC2(C(=O)O)CCOCC2)cc(OCC)c1C1(O)CC1` [Example 4-74], the IC50 under setting [1] is 50.5 nM.

`CCCCN(C(=O)NC1(C(=O)O)CC(F)(F)C1)[C@H](C)c1cc(OCC)c(C)c(OCC)c1` [Example 4-1, 1-({Butyl[(1R)-1-(3,5-Diethoxy-4-Methylphenyl)Ethyl]Carbamoyl}Amino)-3,3-Difluorocyclobutane-1-Carboxylic Acid]: the IC50 under setting [1] is 2500 nM.

Turning to `CCOc1cc(C(C)N(CCCCc2ccccc2)C(=O)NC2(C(=O)O)CC(F)(F)C2)cc(OCC)c1C(N)=O` (centres unmarked) [Example 1-40, 1-({[1-(4-Carbamoyl-3,5-Diethoxyphenyl)Ethyl](4-Phenylbutyl) Carbamoyl}Amino)-3,3-Difluorocyclobutane-1-Carboxylic Acid], under setting [1], the IC50 was 103 nM.

Turning to `CCOc1cc([C@@H](C)N(CCCC(F)(F)c2ccccc2)C(=O)N[C@]2(C(=O)O)C[C@@H](OCC)C2)cc(OCC)c1C(C)=O` [Example 4-69], the IC50 under setting [1] is 4.9 nM.

Turning to `CCOc1cc([C@@H](C)N(CCCCc2ccccc2)C(=O)NC2(C(=O)O)CC(F)(F)C2)cc(OCC)c1C(C)O` (single isomer, unassigned) [Example 1-35], the IC50 under setting [1] was 1.81 nM.

Regarding `CCOc1cc([C@@H](C)N(CCC(F)(F)Cc2ccccc2)C(=O)NC2(C(=O)O)CC(F)(F)C2)cc(OCC)c1C(C)O` (single isomer, unassigned) [Example 4-85], under setting [1], the IC50 is 16.1 nM.

On to `CCOc1cc(C(C)N(CCCCc2ccccc2)C(=O)NC2(C(=O)O)CC(F)(F)C2)cc(OCC)c1C(=O)O` (centres unmarked) [Example 1-39], for which the IC50 under setting [1] was 5640 nM.

Take `CCOc1cc([C@@H](C)N(CCO[C@@H](C)c2ccccc2)C(=O)N[C@]2(C(=O)O)C[C@@H](OC)C2)c(Cl)c(OCC)c1C(C)=O` [Example 5-28]: under setting [1], the IC50 is 2.31 nM.
